Key:
[1] = system: Peripheral blood lymphocytes; assay: Ceramide in anti-Fas antibody stimulated peripheral blood lymphocytes (DAG kinase assay); assay type: cell-based; conditions: for Ceramide: 30 min at 37° C., then anti-Fas antibody 30 min, Control 20, Control + anti-Fas antibody 81.6; for Effect on synthesis of ceramide in vitro: anti-Fas stimulated lymphocytes
Text: (§1) Ceramide levels can be directly measured by isolating peripheral blood lymphocytes from the patient. Thereafter the cells are centrifuged to eliminate the supernatant, and the lipids are removed from the cell pellet. The organic phase containing the ceramide can be assayed using the “DAG kinase assay” for phosphorylating the ceramide which is then evidenced by autoradiography [Cifone, M. G. et al., J. Exp. Med., 180(4): 1547-52].
Peripheral blood lymphocytes were isolated according to the classical methodologies. The cells were incubated with L-carnitine (200 mcg/ml) or with isovaleryl L-carnitine for 30 min at 37° C., and afterwards with an anti-Fas monoclonal antibody for another 30 min. The cells were then centrifuged, eleminating the supernatant, and the cell pellet was delipidized. The organic phase (containing the ceramide) was assayed in the “DAG kinase assay” for phosphorylating ceramide which subsequently was evidenced by autoradiography.
It is known that the cells suitably stimulated (i.e. with Fas-L, inter-leukin-1, etc.) generate ceramide. An anti-Fas antibody was employed to increase the production of ceramide from a basal value (20 picomoles per 10^6 cells) to 81.6 picomoles per 10^6 cells.

[2] = system: peripheral blood lymphocyte-associated ceramide; assay: Peripheral blood lymphocyte-associated ceramide in patients with protein catabolism and lipidic depletion from tubercular infection; assay type: in vivo, human; conditions: 8 g per day parenteral, two weeks
Text: as §1
Four patients affected by protein catabolism and lipidic depletion as a consequence of tubercular infection were treated for two weeks with 8 g per day L-carnitine by parenteral route.
The peripheral blood lymphocyte-associated ceramide was determined before and after the treatment.

[3] = system: Ceramide in the muscles; assay: Muscle ceramide in patients with symptomatic neuro-myopathy (chronic fatigue syndrome); assay type: in vivo, human; conditions: 3 g per day oral, two months
Procedure: Two patients affected by symptomatic neuro-myopathy (chronic fatigue syndrome) were treated with 3 g per clay of L-carnitine by oral route through two months. Ceramide was measured in the muscles before and after the administration.

[4] = system: lymphocyte-associated ceramide; assay: Lymphocyte-associated ceramide in hyperthyroidism patients treated with metimazole; assay type: in vivo, human; conditions: 8 g per day oral, 4 weeks
Text: Ceramide levels can be directly measured by isolating peripheral blood lymphocytes from the patient. Thereafter the cells are centrifuged to eliminate the supernatant, and the lipids are removed from the cell pellet. The organic phase containing the ceramide can be assayed using the “DAG kinase assay” for phosphorylating the ceramide which is then evidenced by autoradiography [Cifone, M. G. et al., J. Exp. Med., 180(4): 1547-52]. Four patients affected by hyperthyroidism who had been treated with metimazole (15 mg by oral route, daily) for more than eight months, were treated for 4 weeks with 8 g per day L-carnitine by oral route. The lymphocyte-associated ceramide was determinded before and after the treatment.

[5] = system: lymphocyte-associated ceramide; assay: Lymphocyte-associated ceramide in patients with hepato-splenomegaly due to viral hepatitis of C type; assay type: in vivo, human; conditions: 4 g bolus intravenous
Text: Ceramide levels can be directly measured by isolating peripheral blood lymphocytes from the patient. Thereafter the cells are centrifuged to eliminate the supernatant, and the lipids are removed from the cell pellet. The organic phase containing the ceramide can be assayed using the “DAG kinase assay” for phosphorylating the ceramide which is then evidenced by autoradiography [Cifone, M. G. et al., J. Exp. Med., 180(4): 1547-52]. Three patients with hepato-splenomegaly due to viral hepatitis of C type were treated with 4 g of L-carnitine bolus by intravenous route. The lymphocyte-associated ceramide was determined before and after 3 and 48 hours following the infusion.

`CC(C)CC(=O)O[C@H](CC(=O)[O-])C[N+](C)(C)C` [isovaleryl L-carnitine] was tested, and the Ceramide ([1]; 50 mcg/ml) was 8.6 picomoles per 10^6 cells, the Ceramide ([1]; 100 mcg/ml) was 7.3 picomoles per 10^6 cells and the “Effect on synthesis of ceramide in vitro” value [1] was “inhibit the synthesis of ceramide in vitro”.
Compound `C[N+](C)(C)C[C@H](O)CC(=O)[O-]` [L-carnitine] has a Ceramide post-treatment ([2]; Patient 1, pre-treatment 127) of 59 picomoles/10^6 cells, a Ceramide post-treatment ([2]; Patient 2, pre-treatment 265) of 77 picomoles/10^6 cells and a Ceramide post-treatment ([2]; Patient 3, pre-treatment 301) of 152 picomoles/10^6 cells. For the same compound, the Ceramide post-treatment ([2]; Patient 4, pre-treatment 78) was 54 picomoles/10^6 cells, the Ceramide post-treatment ([3]; Patient 1, pre-treatment 76) was 28 picomoles per mg of proteins and the Ceramide post-treatment ([3]; Patient 2, pre-treatment 142) was 46 picomoles per mg of proteins. It also gave a Ceramide post-treatment ([4]; Patient 1, pre-treatment 73) of 26 picomoles/10^6 cells, a Ceramide post-treatment ([4]; Patient 2, pre-treatment 45) of 27 picomoles/10^6 cells and a Ceramide post-treatment ([4]; Patient 3, pre-treatment 111) of 36 picomoles/10^6 cells. The Ceramide post-treatment ([4]; Patient 4, pre-treatment 69) was 18 picomoles/10^6 cells, the Ceramide ([1]; 100 mcg/ml) was 7.3 picomoles per 10^6 cells and the “Effect on synthesis of ceramide in vitro” value [1] was “inhibit the synthesis of ceramide in vitro”. For the same compound, the “Duration of the effect on ceramide levels” value [5] was “remains at least for two days”, the “Effect of bolus on ceramide levels” value ([5]; after 3 hours from the infusion) was “inhibited the increase of ceramide levels already after 3 hours” and the “Ceramide After 3 hrs” value ([5]; Patient 1, pre-treatment 65) was 12 picomoles/10^6 cells. For the same compound, the “Ceramide After 48 hrs” value ([5]; Patient 1, pre-treatment 65) was 31 picomoles/10^6 cells, the “Ceramide After 3 hrs” value ([5]; Patient 2, pre-treatment 77) was 32 picomoles/10^6 cells and the “Ceramide After 48 hrs” value ([5]; Patient 2, pre-treatment 77) was 21 picomoles/10^6 cells. For the same compound, the “Ceramide After 3 hrs” value ([5]; Patient 3, pre-treatment 79) was 24 picomoles/10^6 cells and the “Ceramide After 48 hrs” value ([5]; Patient 3, pre-treatment 79) was 23 picomoles/10^6 cells.
